{"source": "paper PMC3109749", "about": "(ACS medicinal chemistry letters, 2011)", "key": {"human FAAH (hFAAH)": {"target": "T1, human FAAH (hFAAH) (Homo sapiens, UniProt O00519)", "T1 sequence (O00519 32-579 limits assumed)": "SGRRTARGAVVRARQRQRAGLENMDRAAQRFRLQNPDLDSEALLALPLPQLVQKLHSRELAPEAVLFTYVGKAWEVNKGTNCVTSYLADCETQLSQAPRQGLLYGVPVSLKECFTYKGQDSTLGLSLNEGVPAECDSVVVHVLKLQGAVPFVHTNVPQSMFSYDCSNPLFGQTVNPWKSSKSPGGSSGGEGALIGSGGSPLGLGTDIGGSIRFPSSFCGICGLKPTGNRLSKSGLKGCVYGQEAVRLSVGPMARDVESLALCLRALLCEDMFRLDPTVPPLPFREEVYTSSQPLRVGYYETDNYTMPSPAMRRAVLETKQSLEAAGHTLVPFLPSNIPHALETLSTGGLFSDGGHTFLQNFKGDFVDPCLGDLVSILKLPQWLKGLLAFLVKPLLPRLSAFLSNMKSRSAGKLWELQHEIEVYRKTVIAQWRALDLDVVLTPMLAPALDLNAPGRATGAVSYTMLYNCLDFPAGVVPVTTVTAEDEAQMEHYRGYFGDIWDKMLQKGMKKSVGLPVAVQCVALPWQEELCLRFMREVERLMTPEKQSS", "test": "enzyme-coupled human FAAH assay, kinact/Ki", "type": "biochemical"}, "[1]": {"target": "T2, serine hydrolase superfamily (FAAH and other FP-reactive serine hydrolases) (Homo sapiens, UniProt O00519)", "T2 sequence (O00519 1-579)": "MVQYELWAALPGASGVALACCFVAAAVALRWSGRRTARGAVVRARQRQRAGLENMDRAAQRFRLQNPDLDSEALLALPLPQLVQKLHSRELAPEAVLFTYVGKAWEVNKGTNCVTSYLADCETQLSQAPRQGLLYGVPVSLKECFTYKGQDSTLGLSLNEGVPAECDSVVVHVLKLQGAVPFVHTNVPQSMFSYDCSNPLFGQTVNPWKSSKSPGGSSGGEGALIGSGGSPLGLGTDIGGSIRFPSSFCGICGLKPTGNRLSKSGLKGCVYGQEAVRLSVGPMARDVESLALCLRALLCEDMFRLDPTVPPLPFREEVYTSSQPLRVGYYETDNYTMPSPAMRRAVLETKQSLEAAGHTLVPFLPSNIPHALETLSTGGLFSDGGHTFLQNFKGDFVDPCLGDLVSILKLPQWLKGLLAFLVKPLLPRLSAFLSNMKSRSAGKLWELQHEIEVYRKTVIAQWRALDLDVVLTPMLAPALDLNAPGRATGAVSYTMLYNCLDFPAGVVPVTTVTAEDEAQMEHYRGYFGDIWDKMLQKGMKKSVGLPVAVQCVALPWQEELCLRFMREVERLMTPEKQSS", "type": "biochemical", "details": "brain membrane proteome; at both 10 and 100 μM"}, "[2]": {"system": "serine hydrolase superfamily (FAAH and other FP-reactive serine hydrolases)", "type": "biochemical, human", "details": "for off targets in human membrane proteome (ABPP): brain membrane proteome, 10 and 100 μM"}, "[3]": {"target": "T3, serine hydrolase superfamily (FAAH and other FP-reactive serine hydrolases) (Mus musculus, UniProt O08914)", "T3 sequence (O08914 1-579)": "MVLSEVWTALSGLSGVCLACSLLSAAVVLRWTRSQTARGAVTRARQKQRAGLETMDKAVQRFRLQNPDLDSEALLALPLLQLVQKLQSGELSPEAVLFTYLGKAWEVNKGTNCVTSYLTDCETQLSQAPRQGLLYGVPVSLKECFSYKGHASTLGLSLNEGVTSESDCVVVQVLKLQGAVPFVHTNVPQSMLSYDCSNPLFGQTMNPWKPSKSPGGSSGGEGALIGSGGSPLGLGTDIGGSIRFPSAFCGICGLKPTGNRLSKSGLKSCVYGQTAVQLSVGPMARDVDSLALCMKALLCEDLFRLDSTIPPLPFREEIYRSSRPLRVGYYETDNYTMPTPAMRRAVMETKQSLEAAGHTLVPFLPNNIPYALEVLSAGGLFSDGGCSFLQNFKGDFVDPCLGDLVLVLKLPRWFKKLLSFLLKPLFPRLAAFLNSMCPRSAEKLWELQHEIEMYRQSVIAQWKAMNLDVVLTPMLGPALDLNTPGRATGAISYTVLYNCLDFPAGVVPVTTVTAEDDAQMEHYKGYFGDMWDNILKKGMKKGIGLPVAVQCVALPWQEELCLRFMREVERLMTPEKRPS", "type": "biochemical", "details": "brain membrane proteome; at both 10 and 100 μM"}, "[4]": {"system": "serine hydrolase superfamily (FAAH and other FP-reactive serine hydrolases)", "type": "biochemical, mouse", "details": "for off targets in mouse membrane proteome (ABPP): brain membrane proteome, 10 and 100 μM"}, "[5]": {"test": "human liver microsomal stability and binding", "type": "in vitro ADME", "details": "predicted from in vitro experiments"}, "FAAH": {"target": "T4, FAAH (Rattus norvegicus, UniProt P97612)", "T4 sequence (P97612 1-579)": "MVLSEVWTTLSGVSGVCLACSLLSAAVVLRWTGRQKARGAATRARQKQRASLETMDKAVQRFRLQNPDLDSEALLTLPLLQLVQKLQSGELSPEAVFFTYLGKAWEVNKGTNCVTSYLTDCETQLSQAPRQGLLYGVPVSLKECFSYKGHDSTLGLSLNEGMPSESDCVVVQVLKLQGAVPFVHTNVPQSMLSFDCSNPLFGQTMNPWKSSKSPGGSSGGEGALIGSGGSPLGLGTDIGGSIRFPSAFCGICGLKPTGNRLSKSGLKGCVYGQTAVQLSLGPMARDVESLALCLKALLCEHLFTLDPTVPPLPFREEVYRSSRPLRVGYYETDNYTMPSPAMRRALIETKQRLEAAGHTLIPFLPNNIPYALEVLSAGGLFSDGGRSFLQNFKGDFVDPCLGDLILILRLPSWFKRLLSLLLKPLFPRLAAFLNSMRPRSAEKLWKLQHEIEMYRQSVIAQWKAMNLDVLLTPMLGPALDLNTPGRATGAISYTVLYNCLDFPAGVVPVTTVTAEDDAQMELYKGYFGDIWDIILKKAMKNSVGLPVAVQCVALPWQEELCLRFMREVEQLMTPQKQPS", "test": "in vivo FAAH activity accompanying efficacy", "details": "at efficacious doses starting at 0.1 mg/kg; with elevations in anandamide and other fatty acid amides in brain and plasma"}, "rat FAAH (rFAAH)": {"target": "T5, rat FAAH (rFAAH) (Rattus norvegicus, UniProt P97612)", "T5 sequence (P97612 1-579)": "T4 sequence (P97612 1-579)", "test": "enzyme-coupled rat FAAH assay, kinact/Ki", "type": "biochemical"}, "[6]": {"system": "rat model of inflammatory pain (CFA)", "details": "not shown in this paper's figure; cited from earlier work"}, "[7]": {"details": "soluble proteome of liver, up to 100 μM"}}, "data": [{"smiles": "O=C(Nc1cccnn1)N1CCC(=Cc2cccc(Oc3ccc(C(F)(F)F)nc3)c2)CC1", "note": "[Compound 28]", "values": [{"measurement": "fold less potent for hFAAH as compared to 23", "setting": "human FAAH (hFAAH)", "result": "≤ 2", "unit": "fold"}]}, {"smiles": "O=C(Nc1cccnn1)N1CCC(=Cc2cccc(Oc3ccc(C(F)(F)F)cn3)c2)CC1", "note": "[Compound 23]", "values": [{"measurement": "inhibition of FAAH in human membrane proteome (ABPP)", "setting": "[1]", "result": "completely inhibited FAAH"}, {"measurement": "off targets in human membrane proteome (ABPP)", "setting": "[2]", "result": "no off targets"}, {"measurement": "inhibition of FAAH in mouse membrane proteome (ABPP)", "setting": "[3]", "result": "completely inhibited FAAH"}, {"measurement": "off targets in mouse membrane proteome (ABPP)", "setting": "[4]", "result": "no off targets"}, {"measurement": "predicted human blood clearance", "setting": "[5]", "result": 0.6, "unit": "mL/min/kg"}, {"measurement": "inhibition of FAAH activity in vivo", "setting": "FAAH", "result": "near complete inhibition of FAAH activity"}]}, {"smiles": "O=C(Nc1cccnc1)N1CCC/C(=C/c2cccc(Oc3ccc(C(F)(F)F)cn3)c2)C1", "note": "[Compound 17]", "values": [{"measurement": "FAAH potency in words", "setting": "human FAAH (hFAAH); relative to the parent analogue (9 vs 4, 10 vs 5, 12-17 vs 11)", "result": "activity was almost completely abolished"}]}, {"smiles": "O=C(Nc1cccnc1)N1CCC/C(=C\\c2cccc(Oc3ccc(C(F)(F)F)cn3)c2)C1", "note": "[Compound 16]", "values": [{"measurement": "fold less potent than 11 for hFAAH", "setting": "human FAAH (hFAAH); compared to 11", "result": "approximately 19 fold"}]}, {"smiles": "O=C(Nc1cnccn1)N1CCC(=Cc2cccc(Oc3ccc(C(F)(F)F)cn3)c2)CC1", "note": "[Compound 22]", "values": [{"measurement": "fold higher kinact/Ki value for hFAAH as compared to 11", "setting": "human FAAH (hFAAH); compared to 11", "result": 2, "unit": "fold"}]}, {"smiles": "O=C(Nc1cccnn1)N1CCC(=Cc2cccc(Oc3ccccc3)c2)CC1", "note": "[Compound 27]", "values": [{"measurement": "additional fold loss in potency on removal of the trifluoromethyl substituent", "setting": "human FAAH (hFAAH); compared to 26", "result": 10, "unit": "fold"}]}, {"smiles": "Cc1noc(NC(=O)N2CCC(=Cc3cccc(Oc4ccc(C(F)(F)F)cn4)c3)CC2)c1C", "note": "[Compound 24]", "values": [{"measurement": "fold less potent for hFAAH as compared to 23", "setting": "human FAAH (hFAAH)", "result": 5, "unit": "fold"}, {"measurement": "fold more potent for rFAAH as compared to 23", "setting": "rat FAAH (rFAAH); compared to 23", "result": 2, "unit": "fold"}]}, {"smiles": "O=C(Nc1cccnc1)N1CCC(Cc2cccc(Oc3ccc(C(F)(F)F)cn3)c2)CC1", "note": "[Compound 7]", "values": [{"measurement": "minimum effective dose (MED), mechanical allodynia", "setting": "[6]", "result": 3, "unit": "mg/kg"}]}, {"smiles": "O=C(Nc1cccnn1)N1CCC(=Cc2cccc(Oc3ccc(C(F)(F)F)cc3)c2)CC1", "note": "[Compound 26]", "values": [{"measurement": "fold less potent for hFAAH as compared to 23", "setting": "human FAAH (hFAAH)", "result": 2, "unit": "fold"}]}, {"smiles": "O=C(Nc1cccnc1)N1CCC(=Cc2cccc(Oc3ccc(C(F)(F)F)cn3)c2)CC1", "note": "[Compound 11]", "values": [{"measurement": "fold more potent (higher kinact/Ki) than 7 for hFAAH", "setting": "human FAAH (hFAAH); compared to PF-3845 (7)", "result": "approximately 2 fold"}, {"measurement": "fold more potent (higher kinact/Ki) than 7 for rFAAH", "setting": "rat FAAH (rFAAH); compared to PF-3845 (7)", "result": "~4", "unit": "fold"}]}, {"smiles": "NC(=O)c1cccc(-c2cccc(OC(=O)NC3CCCCC3)c2)c1", "note": "[Compound 2]", "values": [{"measurement": "inhibition of FAAH in human membrane proteome (ABPP)", "setting": "[1]", "result": "completely inhibited FAAH"}, {"measurement": "off targets in human membrane proteome (ABPP)", "setting": "[2]", "result": "no off targets"}, {"measurement": "off targets among serine hydrolases in human soluble liver proteome (ABPP)", "setting": "[2]; [7]", "result": "multiple off targets"}, {"measurement": "inhibition of FAAH in mouse membrane proteome (ABPP)", "setting": "[3]", "result": "completely inhibited FAAH"}, {"measurement": "off targets in mouse membrane proteome (ABPP)", "setting": "[4]", "result": "no off targets"}, {"measurement": "off targets among serine hydrolases in mouse soluble liver proteome (ABPP)", "setting": "[4]; [7]", "result": "multiple off targets"}]}]}
